Tested on: M2 macrophage (RAW264.7 differentiated into M2-type with IL-4 and IL-13)
Experiment: MTS cell viability assay, M2-type macrophage
Assay type: cell-based, mouse
Details: compared with MEL and DM1 alone
Method: More specifically, dKLA (SEQ ID NO: 2), MEL (SEQ ID NO: 1), MEL-dKLA (SEQ ID NO: 3; […]-d[KLAKLAKKLAKLAK]) peptide and 5-carboxyl tetramethylrhodamine (TMR)-conjugated dKLA, MEL and MEL-KLA peptides were purchased from GenScript (Piscataway, N.J., USA). TMR was conjugated with the amino group located at the N-terminal of the peptide. Regarding all of the peptides, 95% or greater purified peptides were used. Murine Lewis lung carcinoma (LLC) cells and macrophage RAW264.7 of mice were cultured in Dulbecco's modified Eagle's medium (DMEM; Welgene, Korea) to which 10% heat-inactivated fetal bovine serum (Welgene), 100 U/mL penicillin and 100 μg/mL streptomycin (Invitrogen, CA, USA) were added. Macrophage (RAW264.7) differentiated into M2-type was treated with IL-4 and IL-13 in the medium for 24 hours. After the treatment, the cells were cultured in a state in which serum was insufficient for 48 hours. M1-type macrophage was treated with 1 ng/mL of LPS for 24 hours to induce differentiation.
The cell viability test was measured via the MTS assay. RAW264.7 macrophage was differentiated into M1-type or M2-type macrophage which was inoculated onto a 96-well plate at 3×10^4 cells/well. The next day, the macrophage was treated with each of PBS, dKLA, MEL and MEL-dKLA. After 24 hours, the culture solution was replaced and the cell was treated with 20 μL MTS reaction solution (Promega, WI, USA), followed by reaction at 37° C. Then, […] was measured at 490 nm to measure cell viability.
The MEL-DM1 anticancer drug conjugation method and cell test method are as described above.

MEL-DM1: melittin with N-terminal maleimide covalently bound to the free-sulfhydryl group of maytansine DM1
M2 selective cell killing effect: higher M2 selective cell killing effect
